Like-named read-outs stand apart in the source and are kept apart here.
Target: T1, TAS1R2/TAS1R3 sweet taste receptor (Homo sapiens, UniProt Q7RTX0+Q8TE23)
T1 construct: with TAS1R3
T1 sequence (Q8TE23 20-839): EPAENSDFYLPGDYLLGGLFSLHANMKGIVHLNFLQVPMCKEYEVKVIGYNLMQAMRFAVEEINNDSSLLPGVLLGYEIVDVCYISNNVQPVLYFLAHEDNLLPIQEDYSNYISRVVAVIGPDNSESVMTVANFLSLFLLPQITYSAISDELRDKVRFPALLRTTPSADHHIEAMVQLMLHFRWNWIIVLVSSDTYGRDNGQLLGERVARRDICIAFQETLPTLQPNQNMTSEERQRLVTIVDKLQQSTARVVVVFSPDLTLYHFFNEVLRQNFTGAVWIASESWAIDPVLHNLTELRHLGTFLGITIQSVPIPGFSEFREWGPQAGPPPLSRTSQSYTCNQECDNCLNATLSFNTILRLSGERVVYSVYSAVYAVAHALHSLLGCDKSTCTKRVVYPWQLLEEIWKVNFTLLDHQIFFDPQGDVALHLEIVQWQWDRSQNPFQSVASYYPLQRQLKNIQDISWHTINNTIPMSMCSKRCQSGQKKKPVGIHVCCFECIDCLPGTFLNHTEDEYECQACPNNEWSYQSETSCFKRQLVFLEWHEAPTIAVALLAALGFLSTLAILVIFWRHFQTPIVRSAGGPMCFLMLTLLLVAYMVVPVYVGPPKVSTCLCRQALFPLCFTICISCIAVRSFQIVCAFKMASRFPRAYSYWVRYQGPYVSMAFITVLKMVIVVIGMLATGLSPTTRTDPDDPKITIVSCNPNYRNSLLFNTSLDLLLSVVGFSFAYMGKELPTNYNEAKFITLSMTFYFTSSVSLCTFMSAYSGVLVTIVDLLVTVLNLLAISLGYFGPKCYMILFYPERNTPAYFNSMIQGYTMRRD
T1 sequence (Q7RTX0 21-852): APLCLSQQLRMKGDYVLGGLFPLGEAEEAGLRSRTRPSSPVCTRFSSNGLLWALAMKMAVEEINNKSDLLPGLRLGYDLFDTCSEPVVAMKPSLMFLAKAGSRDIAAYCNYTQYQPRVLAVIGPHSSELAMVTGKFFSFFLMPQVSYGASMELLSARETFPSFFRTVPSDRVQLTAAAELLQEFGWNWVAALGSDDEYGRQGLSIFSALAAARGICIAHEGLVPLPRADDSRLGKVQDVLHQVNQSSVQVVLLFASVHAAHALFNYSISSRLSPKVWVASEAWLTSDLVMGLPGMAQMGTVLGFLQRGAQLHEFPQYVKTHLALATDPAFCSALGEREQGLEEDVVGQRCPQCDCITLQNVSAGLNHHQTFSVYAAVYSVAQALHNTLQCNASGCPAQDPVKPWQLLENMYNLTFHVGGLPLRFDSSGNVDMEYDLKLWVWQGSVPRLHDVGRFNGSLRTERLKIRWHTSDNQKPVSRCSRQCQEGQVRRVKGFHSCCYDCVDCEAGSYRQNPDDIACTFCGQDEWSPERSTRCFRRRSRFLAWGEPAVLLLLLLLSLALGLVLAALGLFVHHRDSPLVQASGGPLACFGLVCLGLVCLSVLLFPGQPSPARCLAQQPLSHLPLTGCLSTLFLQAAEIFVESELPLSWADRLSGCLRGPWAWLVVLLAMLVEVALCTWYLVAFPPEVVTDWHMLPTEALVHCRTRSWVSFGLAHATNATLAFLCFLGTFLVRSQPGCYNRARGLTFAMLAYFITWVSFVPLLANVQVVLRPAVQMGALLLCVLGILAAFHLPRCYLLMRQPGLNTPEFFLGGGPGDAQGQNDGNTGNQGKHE
Test: GCaMP6S calcium imaging in HEK293T-Gα[…]gust44 cells expressing TAS1R2/TAS1R3, mock-corrected
Format: cell-based

| Structure (SMILES) | EC50 [µM] | EC50 (read-out: EC50 (converted)) [µM] |
| --- | --- | --- |
| C[C@]1(CO)CC(=O)[C@]2(C)CC[C@]3(C)C(=CCC4[C@@]5(C)CC[C@H](OC6O[C@H](C(=O)O)[C@@H](O)[C@H](O)[C@H]6O[C@@H]6OC[C@@H](O)[C@H](O)[C@H]6O)[C@](C)(CO)C5CC[C@]43C)C2C1 (stereo partly drawn) [compound 2, 3-O-β-D-xylopyranosyl-(1→2)-β-D-glucuronopyranosylwistariasapogenol A] | 35.9 | – |
| C[C@@H]1O[C@@H](O[C@H]2[C@H](O[C@H]3C(O[C@H]4CC[C@@]5(C)C(CC[C@]6(C)C5CC=C5C7C[C@@](C)(CO)CC(=O)[C@]7(C)CC[C@]56C)[C@@]4(C)CO)O[C@H](C(=O)O)[C@@H](O)[C@@H]3O)OC[C@@H](O)[C@@H]2O)[C@H](O)[C@H](O)[C@H]1O (stereo partly drawn) [compound 3, 3-O-α-L-rhamnopyranosyl-(1→2)-β-D-xylopyranosyl-(1→2)-β-D-glucuronopyranosywistariasapogenol A] | 31.3 | – |
| CC1(C)[C@@H](O[C@H]2O[C@H](C(=O)O)[C@@H](O)[C@H](O)[C@H]2O[C@@H]2O[C@H](C(=O)O)[C@@H](O)[C@H](O)[C@H]2O)CC[C@]2(C)[C@H]3C(=O)C=C4[C@@H]5C[C@@](C)(C(=O)O)CC[C@]5(C)CC[C@@]4(C)[C@]3(C)CC[C@@H]12 [glycyrrhizin] | 41.3 | – |
| OC[C@H]1O[C@H](O[C@]2(CCl)O[C@H](CCl)[C@@H](O)[C@@H]2O)[C@H](O)[C@@H](O)[C@H]1Cl [sucralose, reference compound] | – | 40.2 |
